Results taken from patent US5004738A, “1,1-dioxopenicillanoyl oxymethyl D-6-(α-(methyleneamino) phenylacetamido)-penicillanate and a process for the preparation thereof” (priority 1989, dated 1991).
In brackets after ≈: the same amount, converted by molar mass.

Tests used:
[1] = test system: Enterobacter cloacae 132E; test: In vitro antibacterial activity test (agar dilution, Mueller Hinton Agar); format: cell-based; details: 18 hours at 37° C.
Description: (§1) (1) In vitro antibacterial activity test
(§2) 2 fold dilutions of the testing compounds were employed by using agar dilution method of Mueller Hinton Agar. After 18 hours at 37° C., the susceptibility (MIC) of the test organism was accepted as the lowest concentration of compound capable of producing complete inhibition of growth as judged by the naked eye.

Escherichia coli DC2 = test: as above; format: cell-based; details: 18 hours at 37° C.
Description: as §1, §2

[2] = test system: Staphylococcus aureus SG511; test: as above; format: cell-based; details: 18 hours at 37° C.
Description: as §1, §2

[3] = test system: Streptococcus faecium MD8; test: as above; format: cell-based; details: Enterococcus faecium, 18 hours at 37° C.
Description: as §1, §2

β-lactamases = details: cited from earlier work
[4] = test system: gram-positive and gram-negative bacteria; details: cited from earlier work

Compound: C=N[C@@H](C(=O)N[C@@H]1C(=O)N2[C@@H]1SC(C)(C)[C@@H]2C(=O)OCOC(=O)[C@@H]1N2C(=O)C[C@H]2S(=O)(=O)C1(C)C)c1ccccc1 [compound (I), 1,1-dioxopenicillanoyl oxymethyl D-6-[(α-methyleneamino)phenylacetamido]-penicillanate]
- MIC [1]: 1.56 µg/mL (≈ 2.58 µM)
- MIC (Escherichia coli DC2): 1.56 µg/mL (≈ 2.58 µM)
- MIC [2]: 0.098 µg/mL (≈ 0.162 µM)
- MIC [3]: 0.781 µg/mL (≈ 1.29 µM)

Compound: CC1(C)[C@H](C(=O)O)N2C(=O)C[C@H]2S1(=O)=O [sulbactam, 3.3-dimethyl-7-oxo-4thia-1-azabicyclo(3.2.0)heptane-2-carboxylic acid, 4-4-dioxide [2S(2α,5α)]]
- inhibition of β-lactamases (β-lactamases; alone): poor inhibitor of β-lactamases
- inhibition of the enzymatic hydrolysis of antibiotics (β-lactamases; with β-lactamase inhibiting antibiotics): modest increase in inhibition of the enzymatic hydrolysis of antibiotics

Compound: C=N[C@@H](C(=O)N[C@@H]1C(=O)N2[C@@H]1SC(C)(C)[C@@H]2C(=O)O)c1ccccc1 [Methanpicillin]
- inhibition against gram-positive and gram-negative bacteria [4]: marked increase in inhibition against gram-positive and gram-negative bacteria
